In ChEMBL document CHEMBL4823249, “Discovery of a Pyrimidinedione Derivative as a Potent and Orally Bioavailable Axl Inhibitor” (J Med Chem, 2021):
pIC50: −log10 of the molar value.

Legend:
[1] = target: T1, Hepatocyte growth factor receptor (Homo sapiens, UniProt P08581); assay: Inhibition of MET signaling in human EBC1 cells assessed as reduction in phosphorylation of AKT after 2 hrs by Western blotting analysis; assay type: cell-based; conditions: EBC-1, dose 10-100 nM
[2] = target: Tyrosine-protein kinase JAK3 (Homo sapiens, UniProt P52333); assay: Inhibition of recombinant human JAK3 (781 to end residues) using GGEEEEYFELVKKKK as substrate measured after 40 mins in presence of [gamm33P]ATP by scintillation counting method
[3] = target: Tyrosine-protein kinase receptor TYRO3 (Homo sapiens, UniProt Q06418); assay: Inhibition of recombinant human RSE (451 to end residues) using KVEKIGEGTYGVVYK as substrate incubated for 40 mins in presence of [gamma33P]ATP by scintillation counting based radiometry assay
[4] = AUC(0 to infinity) in ICR mouse at 3 mg/kg, po measured upto 24 hrs by LC-MS analysis; assay type: ADME, organism-based; set-up: route oral, dose 3 mg/kg, time <=24; conditions: in vivo
MKN-45 = assay: Antiproliferative activity against human MKN-45 cells incubated for 72 hrs by SRB or CCK8 assay; assay type: functional, cell-based; conditions: MKN-45, 72 h
HCC827 = assay: Antiproliferative activity against human HCC827 cells incubated for 72 hrs by SRB or CCK8 assay; assay type: functional, cell-based; conditions: HCC827, 72 h
[5] = Oral availability in ICR mouse at 3 mg/kg measured upto 24 hrs by LC-MS analysis; assay type: ADME, organism-based; conditions: in vivo
[6] = Tmax in Sprague-Dawley rat at 3 mg/kg, po measured upto 24 hrs by LC-MS analysis; assay type: ADME, organism-based; conditions: in vivo
CDK2/Cyclin A2 = CDK2/Cyclin A2 (Homo sapiens, UniProt P24941); assay: Inhibition of full length human recombinant CDK2/Cyclin A using histone H1 as substrate incubated for 40 mins in presence of [gamma-33ATP] by radiometric scintillation counting analysis; assay type: protein-complex assay
[7] = target: T1, Hepatocyte growth factor receptor; assay: Inhibition of MET signaling in human MKN45 cells assessed as reduction in phosphorylation of MET after 2 hrs by Western blotting analysis; assay type: cell-based; conditions: MKN-45, dose 10-100 nM

T1 sequence (P08581 whole entry): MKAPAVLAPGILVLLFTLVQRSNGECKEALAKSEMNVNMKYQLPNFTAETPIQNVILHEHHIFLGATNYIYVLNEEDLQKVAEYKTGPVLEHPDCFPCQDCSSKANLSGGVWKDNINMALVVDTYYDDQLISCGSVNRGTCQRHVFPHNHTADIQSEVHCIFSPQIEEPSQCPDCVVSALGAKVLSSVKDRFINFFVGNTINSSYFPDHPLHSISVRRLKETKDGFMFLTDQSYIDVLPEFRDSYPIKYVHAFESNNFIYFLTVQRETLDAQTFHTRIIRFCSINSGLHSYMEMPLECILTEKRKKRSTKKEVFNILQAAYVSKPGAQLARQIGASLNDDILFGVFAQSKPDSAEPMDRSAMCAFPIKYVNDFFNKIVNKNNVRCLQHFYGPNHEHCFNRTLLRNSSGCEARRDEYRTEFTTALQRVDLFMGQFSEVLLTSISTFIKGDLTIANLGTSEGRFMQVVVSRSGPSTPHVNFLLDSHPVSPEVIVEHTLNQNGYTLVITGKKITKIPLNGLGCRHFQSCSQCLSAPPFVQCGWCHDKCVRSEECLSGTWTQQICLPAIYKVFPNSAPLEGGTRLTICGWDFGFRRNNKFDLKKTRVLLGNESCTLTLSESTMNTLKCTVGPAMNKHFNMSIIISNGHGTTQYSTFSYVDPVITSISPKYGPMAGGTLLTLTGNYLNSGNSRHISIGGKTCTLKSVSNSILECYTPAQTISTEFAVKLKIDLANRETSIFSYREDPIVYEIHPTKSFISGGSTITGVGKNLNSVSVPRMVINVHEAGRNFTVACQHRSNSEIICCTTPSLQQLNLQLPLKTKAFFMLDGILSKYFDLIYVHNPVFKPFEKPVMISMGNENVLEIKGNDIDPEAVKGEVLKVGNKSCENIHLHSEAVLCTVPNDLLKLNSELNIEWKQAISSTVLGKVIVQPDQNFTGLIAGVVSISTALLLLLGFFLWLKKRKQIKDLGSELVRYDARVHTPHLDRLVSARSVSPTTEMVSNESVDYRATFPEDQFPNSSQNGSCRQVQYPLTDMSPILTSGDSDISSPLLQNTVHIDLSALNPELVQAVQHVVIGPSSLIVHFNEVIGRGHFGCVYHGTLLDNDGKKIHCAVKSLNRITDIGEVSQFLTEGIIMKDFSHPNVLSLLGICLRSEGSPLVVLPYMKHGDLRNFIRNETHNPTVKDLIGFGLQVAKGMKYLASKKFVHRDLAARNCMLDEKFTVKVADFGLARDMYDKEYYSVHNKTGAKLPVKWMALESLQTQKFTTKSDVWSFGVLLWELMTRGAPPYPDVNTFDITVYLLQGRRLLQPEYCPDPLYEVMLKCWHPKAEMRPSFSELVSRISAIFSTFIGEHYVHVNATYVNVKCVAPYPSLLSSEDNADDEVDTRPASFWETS
Chain of Tyrosine-protein kinase JAK3 (P52333 whole entry): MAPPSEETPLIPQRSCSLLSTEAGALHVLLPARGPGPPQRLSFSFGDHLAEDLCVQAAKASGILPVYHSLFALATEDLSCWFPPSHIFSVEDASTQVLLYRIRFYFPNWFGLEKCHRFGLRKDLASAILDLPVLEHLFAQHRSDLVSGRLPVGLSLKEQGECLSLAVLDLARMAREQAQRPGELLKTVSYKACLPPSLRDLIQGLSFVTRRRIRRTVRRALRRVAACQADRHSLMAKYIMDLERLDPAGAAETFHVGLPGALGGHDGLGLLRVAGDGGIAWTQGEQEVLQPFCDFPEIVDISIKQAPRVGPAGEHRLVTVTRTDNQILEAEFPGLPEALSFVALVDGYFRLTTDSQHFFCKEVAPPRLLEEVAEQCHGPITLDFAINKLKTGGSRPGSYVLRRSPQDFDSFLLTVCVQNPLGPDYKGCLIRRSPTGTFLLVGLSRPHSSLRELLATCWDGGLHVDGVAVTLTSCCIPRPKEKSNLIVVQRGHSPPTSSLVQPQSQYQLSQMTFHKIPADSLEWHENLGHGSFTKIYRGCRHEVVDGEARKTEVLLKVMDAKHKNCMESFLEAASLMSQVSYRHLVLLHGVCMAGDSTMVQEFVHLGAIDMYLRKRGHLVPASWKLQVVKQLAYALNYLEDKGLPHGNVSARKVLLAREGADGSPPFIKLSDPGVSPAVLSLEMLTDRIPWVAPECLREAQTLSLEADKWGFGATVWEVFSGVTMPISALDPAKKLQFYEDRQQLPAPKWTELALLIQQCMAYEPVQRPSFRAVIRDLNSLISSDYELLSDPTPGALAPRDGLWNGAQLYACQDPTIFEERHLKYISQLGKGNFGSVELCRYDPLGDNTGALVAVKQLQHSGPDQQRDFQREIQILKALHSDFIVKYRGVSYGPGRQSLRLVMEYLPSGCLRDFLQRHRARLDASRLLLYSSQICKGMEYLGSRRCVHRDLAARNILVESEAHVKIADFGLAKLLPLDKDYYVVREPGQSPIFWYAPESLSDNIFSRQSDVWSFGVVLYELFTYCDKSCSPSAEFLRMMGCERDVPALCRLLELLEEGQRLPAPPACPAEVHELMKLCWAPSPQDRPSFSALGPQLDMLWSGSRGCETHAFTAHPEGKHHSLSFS
Chain of Tyrosine-protein kinase receptor TYRO3 (Q06418 whole entry): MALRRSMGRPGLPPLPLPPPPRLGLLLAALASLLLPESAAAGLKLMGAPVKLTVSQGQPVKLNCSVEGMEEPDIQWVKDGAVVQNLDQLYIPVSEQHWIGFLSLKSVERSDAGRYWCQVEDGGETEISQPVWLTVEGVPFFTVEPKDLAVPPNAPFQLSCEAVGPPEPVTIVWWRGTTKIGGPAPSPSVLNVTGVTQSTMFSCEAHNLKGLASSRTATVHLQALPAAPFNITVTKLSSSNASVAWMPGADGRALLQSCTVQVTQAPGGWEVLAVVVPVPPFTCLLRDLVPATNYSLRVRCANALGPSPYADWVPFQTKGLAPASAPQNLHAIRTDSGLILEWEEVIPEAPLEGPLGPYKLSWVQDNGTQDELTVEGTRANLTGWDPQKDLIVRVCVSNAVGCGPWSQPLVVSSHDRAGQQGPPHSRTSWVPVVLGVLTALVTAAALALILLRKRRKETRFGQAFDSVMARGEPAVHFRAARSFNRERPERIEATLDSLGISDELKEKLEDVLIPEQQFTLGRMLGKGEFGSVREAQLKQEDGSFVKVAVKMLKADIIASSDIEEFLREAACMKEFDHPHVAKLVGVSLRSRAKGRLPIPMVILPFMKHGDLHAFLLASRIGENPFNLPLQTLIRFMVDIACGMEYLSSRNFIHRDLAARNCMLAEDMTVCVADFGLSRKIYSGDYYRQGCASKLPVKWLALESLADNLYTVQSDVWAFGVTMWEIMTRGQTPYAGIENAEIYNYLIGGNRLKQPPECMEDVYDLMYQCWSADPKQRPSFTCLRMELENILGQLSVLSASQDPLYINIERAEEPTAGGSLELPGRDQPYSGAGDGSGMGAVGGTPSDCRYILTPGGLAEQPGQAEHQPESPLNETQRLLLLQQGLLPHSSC

CC(C)n1cc(C(=O)Nc2ccc(Oc3ccnc(NC(=O)C4CC4)c3)c(F)c2)c(=O)n(-c2ccc(F)cc2)c1=O
inhibition [1]: Dose-Dependent Effect
pIC50 [2]: < 6.00
pIC50 [3]: 9.00
AUC(0-inf) [4]: 25100 ng·h/mL
pIC50 (MKN-45): 6.97
pIC50 (HCC827): < 5.00
bioavailability [5]: 114%
Tmax [6]: 1.17 h
pIC50 (CDK2/Cyclin A2): < 6.00
inhibition [7]: Dose-Dependent Effect
